Where “and” joins values, the source holds several entries; their conditions need not be identical. Equal entries are not always repeated. Where two headings read alike, the source gives them in different places.
Columns and labels:
GM05757 cells [1] = assay: PrestoBlue (resazurin) cytotoxicity assay in GM05757 normal fibroblasts
Protocol: Human CRC cells HCT116 obtained from ATCC were cultured in Eagle’s minimal essential medium (EMEM), while Dulbecco’s modified Eagle medium (DMEM) was used for the normal fibroblast cell line GM05757 purchased from Coriell Institute. These culture media were supplemented with 10% FBS, 26.2 mM sodium bicarbonate, 2 mM L-glutamine, and a mix of penicillin (100 UI/mL) and streptomycin (100 μg/mL). Cells were incubated at 37 °C in a humidified environment with 5% CO2.
Cytotoxic activity was measured with the PrestoBlue method, which consists of a Resazurin-based metabolic assay. Briefly, HCT116 cells (2 × 10^4 cells per well) and GM05757 cells (5 × 10^3 cells per well) were seeded in a 96-well plate and incubated for 24 h. Then, the cells were treated with the Pt drugs at concentrations ranging from 0 to 500 µM for a subsequent 24, 48, and 72 h. […] The final concentration of DMSO was less than 1%. Then, the media were removed, and the cells were washed with warm PBS and exposed with PrestoBlue reagent for an incubation time of 20 min. Changes in cell viability were recorded by fluorescence (λex = 570 nm; λem = 610 nm). […] The fluorescence values measured for blank groups were subtracted from those obtained from the treated and untreated cells.

HCT116 cells [2] = assay: PrestoBlue (resazurin) cytotoxicity assay in HCT116 cells; type: cell-based, human
Protocol: Human CRC cells HCT116 obtained from ATCC were cultured in Eagle’s minimal essential medium (EMEM), while Dulbecco’s modified Eagle medium (DMEM) was used for the normal fibroblast cell line GM05757 purchased from Coriell Institute. […] Cells were incubated at 37 °C in a humidified environment with 5% CO2.
Cytotoxic activity was measured with the PrestoBlue method, which consists of a Resazurin-based metabolic assay. […] The final concentration of DMSO was less than 1%. Then, the media were removed, and the cells were washed with warm PBS and exposed with PrestoBlue reagent for an incubation time of 20 min. Changes in cell viability were recorded by fluorescence (λex = 570 nm; λem = 610 nm). […] The fluorescence values measured for blank groups were subtracted from those obtained from the treated and untreated cells.

[3] = Pt release at physiological pH by mass spectroscopy; type: physicochemical; conditions: physiological pH 7.2, after 72 h
HCT116 cells [4] = assay: Efflux assay in HCT116 cells; type: cell-based, human
Protocol: HCT116 cells (2 × 10^5 per well) were seeded in 12-well plates for 48 h in EMEM medium completed with 10% FBS at 37 °C until 80% confluence. Cells were washed twice with PBS, and then [^64Cu]Cu-NOTA-C3-TP (0.1 MBq, 50 µL) in EMEM completed medium was added and incubated from 15 min to 72 h to measure cellular uptake and internalization. At each time point, the radioactive media was removed, and cells were washed thrice with cold PBS. To measure the net cellular uptake or internalized fraction, surface-bound Pt drugs were removed by treating with 50 mM glycine in PBS pH 2.2 for 10 min, which was followed by a second cold PBS wash. Then, cells were harvested through trypsinization and counted with a hemocytometer. The radioactivity was measured in a gamma counter (HIDEX Automatic Gamma Counter 2014). The results were expressed as a percentage of added dose (AD) retained per 10^6 cells (%AD/10^6 cells). Parallel experiments were carried out at 4 °C to assess internalization inhibition and surface-bound fraction. […] Finally, the cells were harvested, and radioactivity was counted with the gamma counter. The results were expressed as percentage of total activity retained by 10^6 cells relative to baseline at 0 min.
For efflux studies, we followed the standard protocol of Fournier et al.. […] The activity retained by the cells was measured from 0 to 72 h post administration.

HCT116 cells [5] = assay: Subcellular (nucleus/cytoplasm) localization in HCT116 cells; type: cell-based, human; conditions: for Nucleus accumulation HCT116 versus GM05757 (fold reduction in GM05757) / Cytoplasmic distribution / Nucleus localization: high AMA; for Cytoplasmic distribution / Nucleus localization: HCT116
Protocol: For extraction of HCT116 and GM05757 cell nucleus and cytoplasm, we followed a previously reported procedure [28, 31]. After treatment of HCT116 cells with 1MBq of [^64Cu]Cu-NOTA-C3-TP for 24, 48 and 72 h, CSK buffer (0.5% Triton X-100, 300 mM sucrose, 100 mM NaCl, 1 mM ethylenediaminetetraacetic acid (EDTA), 2 mM MgCl2, and 10 mM HEPES, pH 6.8) were employed for nuclear extraction. After 5 min centrifugation, supernatant was separated, and the retained activity in nuclear plates was counted by a gamma counter (HIDEX Automatic Gamma Counter 2014).

[6] = Plasma stability by radio-TLC; type: in vitro ADME, mouse; conditions: room temperature; radio-iTLC; free 64Cu or fragments
Protocol: Plasma stability of the compound was assessed by incubating [^64Cu]Cu-NOTA-C3-TP in mouse plasma for 72 h at room temperature. Radio-TLC on C18 plates conducted on 0.1 M sodium citrate buffer at pH 5.5, as a developing solvent, was used to detect free ^64Cu. [^64Cu]Cu-NOTA-C3-TP and free [^64Cu]Cu(OAc)2 were employed as control standards.

HCT116 cells [7] = assay: Cellular uptake and internalization in HCT116 cells (gamma counting); type: cell-based, human
Protocol: HCT116 cells (2 × 10^5 per well) were seeded in 12-well plates for 48 h in EMEM medium completed with 10% FBS at 37 °C until 80% confluence. Cells were washed twice with PBS, and then [^64Cu]Cu-NOTA-C3-TP (0.1 MBq, 50 µL) in EMEM completed medium was added and incubated from 15 min to 72 h to measure cellular uptake and internalization. At each time point, the radioactive media was removed, and cells were washed thrice with cold PBS. To measure the net cellular uptake or internalized fraction, surface-bound Pt drugs were removed by treating with 50 mM glycine in PBS pH 2.2 for 10 min, which was followed by a second cold PBS wash. Then, cells were harvested through trypsinization and counted with a hemocytometer. The radioactivity was measured in a gamma counter (HIDEX Automatic Gamma Counter 2014). The results were expressed as a percentage of added dose (AD) retained per 10^6 cells (%AD/10^6 cells). Parallel experiments were carried out at 4 °C to assess internalization inhibition and surface-bound fraction. For efflux studies, HCT116 cells were incubated for 1 h with 0.1 MBq of [^64Cu]Cu-NOTA-C3-TP. Then, the cells were washed with PBS and fresh culture medium was added. After 0 to 72 h, the medium was removed, and the cells were washed thrice with PBS. Finally, the cells were harvested, and radioactivity was counted with the gamma counter. The results were expressed as percentage of total activity retained by 10^6 cells relative to baseline at 0 min.

GM05757 cells [8] = conditions: high AMA
Protocol: For extraction of HCT116 and GM05757 cell nucleus and cytoplasm, we followed a previously reported procedure. After treatment of HCT116 cells with 1MBq of [^64Cu]Cu-NOTA-C3-TP for 24, 48 and 72 h, CSK buffer (0.5% Triton X-100, 300 mM sucrose, 100 mM NaCl, 1 mM ethylenediaminetetraacetic acid (EDTA), 2 mM MgCl2, and 10 mM HEPES, pH 6.8) were employed for nuclear extraction. After 5 min centrifugation, supernatant was separated, and the retained activity in nuclear plates was counted by a gamma counter (HIDEX Automatic Gamma Counter 2014).

[9] = HCT116, 24 h, low AMA 0.8 to 4.0 MBq/nmol
[10] = HCT116, 37 °C, 24 h, % of total activity/10^6 cells

Structure (SMILES): O=C1[O][Pt]2([NH][C@@H]3CCCC[C@H]3[NH]2)[O]C1=O [Oxaliplatin, reference compound]
- EC50 (GM05757 cells [1]; read-out: EC50 GM05757 24 h, 24 h incubation): > 200 µM
- EC50 (GM05757 cells [1]; read-out: EC50 GM05757 48 h, 48 h incubation): 165 ± 9 µM
- EC50 (GM05757 cells [1]; read-out: EC50 GM05757 72 h, 72 h incubation): 65 ± 3 µM
- EC50 (HCT116 cells [2]; 24 h incubation, read-out: EC50 HCT116 24 h): > 200 µM
- EC50 (HCT116 cells [2]; 48 h incubation, read-out: EC50 HCT116 48 h): 64 ± 1 µM
- EC50 (HCT116 cells [2]; 72 h incubation, read-out: EC50 HCT116 72 h): 16 ± 4 µM

Structure (SMILES): O=C([O-])CN1CCN(CCCOc2cc3[n+]4c(c2)-c2cccc[n+]2[Pt-2]4([Cl])[n+]2ccccc2-3)CCN(CC(=O)[O-])CC1.[64Cu+2] [[^64Cu]Cu-NOTA-C3-TP]
- Pt released [3]: not seen
- Cytotoxic activity on GM05757 lower than on HCT116 (fold) (GM05757 cells [1]; low AMA, 24 h): at least 3.4 fold
- EC50 (GM05757 cells [1]; read-out: EC50 GM05757 24 h, 24 h, high AMA ≈120 MBq/nmol): > 0.066 µM
- EC50 (GM05757 cells [1]; read-out: EC50 GM05757 24 h, 24 h, low AMA 0.8 to 4.0 MBq/nmol): > 200 µM
- EC50 (GM05757 cells [1]; read-out: EC50 GM05757 48 h, 48 h, high AMA ≈120 MBq/nmol): 0.025 ± 0.005 µM
- EC50 (GM05757 cells [1]; read-out: EC50 GM05757 72 h, 72 h, high AMA ≈120 MBq/nmol): 0.019 ± 0.004 µM
- EC50 (GM05757 cells [1]; read-out: EC50 GM05757 72 h, 72 h, low AMA 0.8 to 4.0 MBq/nmol): 12 ± 2 µM
- Viability of HCT116 cells (HCT116 cells [2]; 5 MBq, low AMA, 24 h incubation): 22%
- Viability of HCT116 cells (HCT116 cells [2]; 8 MBq, low AMA, 24 h incubation): 17%
- EC50 (HCT116 cells [2]; 24 h, high AMA ≈120 MBq/nmol, read-out: EC50 HCT116 24 h): 0.017 ± 0.004 µM
- EC50 (HCT116 cells [2]; 24 h, low AMA 0.8 to 4.0 MBq/nmol, read-out: EC50 HCT116 24 h): 59 ± 3 µM
- EC50 (HCT116 cells [2]; 48 h, high AMA ≈120 MBq/nmol, read-out: EC50 HCT116 48 h): 0.012 ± 0.006 µM
- EC50 (HCT116 cells [2]; 48 h, low AMA 0.8 to 4.0 MBq/nmol, read-out: EC50 HCT116 48 h): 9 ± 2 µM
- EC50 (HCT116 cells [2]; 72 h, high AMA ≈120 MBq/nmol, read-out: EC50 HCT116 72 h): 0.006 ± 0.002 µM
- EC50 (HCT116 cells [2]; 72 h, low AMA 0.8 to 4.0 MBq/nmol, read-out: EC50 HCT116 72 h): < 5 µM
- Fold more activity relative to [NatCu]Cu-NOTA-C3-TP and NOTA-C3-TP (HCT116 cells [2]; HCT116, 48 and 72 h, low AMA): 5–66 fold
- Improvement of cytotoxicity with respect to [NatCu]Cu-NOTA-C3-TP (HCT116 cells [2]; HCT116, 24 h, high AMA ≈120 MBq/nmol): ~17,000 fold
- Times more active than NOTA-C3-TP (HCT116 cells [2]; [9]): 12 times
- Times more active than [NatCu]Cu-NOTA-C3-TP (HCT116 cells [2]; [9]): 5 times
- Times more active than oxaliplatin (HCT116 cells [2]; [9]): 3.4 times
- Improvement of cytotoxicity with respect to [NatCu]Cu-NOTA-C3-TP (HCT116 cells [2]; HCT116, 72 h, high AMA ≈120 MBq/nmol): > 55,000 fold and 55,000 fold
- Selectivity toward cancer cells (HCT116 cells [2]; HCT116 vs GM05757, 24 h): 3.9
- Times higher efficiency toward HCT116 relative to GM05757 (HCT116 cells [2]; high AMA, 24 to 72 h): 2–4 times
- Conjugate retained by cells (HCT116 cells [4]; 72 h post administration): more than 40%
- Conjugate eliminated (efflux) (HCT116 cells [4]; first 6 h after 1 h incubation): About 42%
- Increase in HCT116 nucleus uptake relative to [64Cu]Cu(OAc)2 (HCT116 cells [5]; 24 h): 2.8 fold
- Nucleus accumulation HCT116 versus GM05757 (fold reduction in GM05757) (HCT116 cells [5]; 24 h): 5.7 fold
- Increase in HCT116 nucleus uptake relative to [64Cu]Cu(OAc)2 (HCT116 cells [5]; 48 h): 4.9 fold
- Nucleus accumulation HCT116 versus GM05757 (fold reduction in GM05757) (HCT116 cells [5]; 48 h): 4.4 fold
- Increase in HCT116 nucleus uptake relative to [64Cu]Cu(OAc)2 (HCT116 cells [5]; 72 h): 3.7 fold
- Nucleus accumulation HCT116 versus GM05757 (fold reduction in GM05757) (HCT116 cells [5]; 72 h): 4.1 fold
- Cytoplasmic distribution (HCT116 cells [5]; 24 h): 76 ± 7.3%
- Nucleus localization (HCT116 cells [5]; 24 h): 8.6 ± 3% and 8.6%
- Cytoplasmic distribution (HCT116 cells [5]; 48 h): 61 ± 11%
- Nucleus localization (HCT116 cells [5]; 48 h): 13.4 ± 4%
- Cytoplasmic distribution (HCT116 cells [5]; 72 h): 61 ± 8.3%
- Nucleus localization (HCT116 cells [5]; 72 h): 12.3 ± 1%
- Stability in mouse plasma [6]: stable up to 72 h
- Internalization in HCT116 fold higher than in GM05757 (HCT116 cells [7]; 24 h, 37 °C): 3.1 fold
- Internalization in HCT116 fold higher than in GM05757 (HCT116 cells [7]; 48 h, 37 °C): 1.8 fold
- Internalization in HCT116 fold higher than in GM05757 (HCT116 cells [7]; 72 h, 37 °C): 2.1 fold
- Uptake at 4 °C (passive accumulation), share of conjugate incubated (HCT116 cells [7]; HCT116, 4 °C): less than 1%
- Cell-associated fraction higher than internalized fraction (HCT116 cells [7]; HCT116, 37 °C): 2 fold
- Incubation time of maximum accumulation (HCT116 cells [7]; HCT116, 37 °C): 24 h
- Internalized fraction (HCT116 cells [7]; HCT116, 37 °C, 15 min incubation, % of total activity/10^6 cells): 0.04 ± 0.02%
- Cell-associated fraction (maximum) (HCT116 cells [7]; [10]): 40.0 ± 2.8%
- Internalized fraction (maximum) (HCT116 cells [7]; [10]): 18.7 ± 2.8%
- Cellular accumulation times larger than cisplatin (HCT116 cells [7]; HCT116, 24 h): 14.4 times
- Cellular accumulation (maximum) (HCT116 cells [7]; HCT116, 24 h incubation, low AMA): 72 ng of Pt/10^6 HCT116 cells
- Uptake at 4 °C lower than at 37 °C (HCT116 cells [7]; HCT116, passive accumulation): ~ 30 fold
- Cytoplasmic distribution (GM05757 cells [8]; 24 h): 46 ± 6%
- Nucleus localization (GM05757 cells [8]; 24 h): 1.5 ± 0.2%
- Cytoplasmic distribution (GM05757 cells [8]; 48 h): 53 ± 6.5%
- Nucleus localization (GM05757 cells [8]; 48 h): 3 ± 0.4%
- Cytoplasmic distribution (GM05757 cells [8]; 72 h): 58.5 ± 8.3%
- Nucleus localization (GM05757 cells [8]; 72 h): 3 ± 0.1%

Reference: publication PMC8469169, “Design, Synthesis, and Cytotoxicity Assessment of [^64Cu]Cu-NOTA-Terpyridine Platinum Conjugate: A Novel Chemoradiotherapeutic Agent with Flexible Linker” (Nanomaterials, 2021)
